# Measurements: US20150352072A1, “ZINC N-ACETYL TAURINATE FOR THE TREATMENT OF PROSTATE CANCER” (TRI-INOV, priority 2011, published 2015)
# “Also recorded” adds a separate entry of the source.
# Key:
# Type in all cases: cell-based
# cyclin-D1 mRNA [1] = assay: Cyclin-D1 mRNA by RT-Q-PCR in normal cells; conditions: normal cells (PrECs), 24 hours
# Protocol: (§1) For the dose-dependence studies, the cells (50% confluent) were treated with ATA-Zn at the concentrations of 10^−3, 10^−4, 10^−5, 10^−6, 10^−7, 10^−8 and 10^−9M, for 24 hours, 48 hours and 72 hours in their respective growth medium. After 48 h of treatment, the cells were harvested and counted in the pellet. In parallel, the cell lysates were prepared in order to extract the mRNA for RT-Q-PCR and Western blotting.
# (§2) The mRNA was extracted from the cells in culture using the “SV Total RNA isolation” kit from the company Promega and according to the procedure hereinafter:
# (§3) A reverse transcription of the RNA was then carried out using the ready to go kit (kit known as “Ready To Go, You Prime First Strand Beads” commercially available from Amersham Biosciences, Piscataway, United States) in accordance with the supplier's instructions using 3 μg of RNA.
# (§4) The “LightCycler-Fast Start DNA Master SYBR Green I” test commercially available from Roche Diagnostics, Meylan, France, was used to quantify the gene expression by means of a real-time polymerase chain reaction (PCR). The PCR (program: 95° C., 30 seconds; 40 cycles: 95° C., 5 seconds; 60° C., 35 seconds) was carried out using a “Mastercycler ep realplex” apparatus sold by the company Eppendorf, Hamburg, Germany.
# (§5) The expression of the target gene was standardized relative to the GAPDH housekeeping gene. […]
# SOD-1 protein = SOD-1 protein by Western blotting in LNCaP cells; conditions: 48 hours, standardized relative to actin
# Protocol: (§6) The cells were lysed in the buffer for the radioimmunoprecipitation test, having the composition hereinafter:
# (§7) The proteins were then separated by SDS-PAGE and were transferred onto a Hybond-P PVDF membrane (Amersham Biosciences, Pantin, France). The membranes were incubated for 1 hour at ambient temperature with a blocking solution consisting of skimmed milk powder at 5% in TBS-T buffer (50 mM Tris-HCl, pH 8.0, 150 mM NaCl, Tween-20 at 0.1%).
# (§8) The membranes were then incubated with rabbit primary antibodies directed against cyclin-D1 (No. 29785); the markers Bax (No. 1063.1) and BCL-2 (No. 1017-1); Nrf-2 (No. 2178-1) and SOD-1 (No. 2018-1) all sold by the company Epitomies under the references indicated above, and the A2103 anti-actin, N-terminal, antibodies sold by the company Sigma-Aldrich (Saint Quentin Fallavier, France) in the blocking solution overnight at 4° C. The said antibodies were diluted in accordance with the manufacturer's instructions to 1/1000. The anti-actin antibodies served to standardize the membranes. […]
# (§9) LNCaP cells were incubated with a range of ATA-Zn concentrations for 48 hours. The amount of Nrf-2 and SOD-1 proteins were then measured by Western blotting. The quantification was carried out with the “Quantity One” software and the results were standardized relative to the actin data. […]
# cyclin-D1 mRNA [2] = assay: Cyclin-D1 mRNA by RT-Q-PCR in LNCaP cells; conditions: 10^−5-10^−9M, after 24 hours of exposure
# Protocol: as §1, §2, §3
# (§10) The “LightCycler-Fast Start DNA Master SYBR Green I” test commercially available from Roche Diagnostics, Meylan, France, was used to quantify the gene expression by means of a real-time polymerase chain reaction (PCR). […]
# The amount of cyclin-D1 mRNA was measured by RT-Q-PCR according to the procedure previously described in the section entitled “Materials and methods”. […]
# [3] = system: LNCaP prostate cancer cell line; assay: Cell count by Trypan blue exclusion, LNCaP cancer cells
# Protocol: The LNCaP prostate cancer cell line, deposited in the ATCC under No. CRL-1740, was used.
# The cell culture medium was RPMI 1640 complete growth medium (ATCC No. 30-2001), containing 2 mM L-glutamine, 10 mM HEPES and 1.0 mM sodium pyruvate, to which the following were added: • 1) sodium carbonate and glucose in amounts sufficient to obtain a sodium carbonate concentration of 20 mM and a glucose concentration of 25 mM, • 2) […] by volume of a mixture of antibiotics (10 μg/ml of gentamycin, 100 IU of penicillin, 100 μg/ml of streptomycin), and • 3) 10% by volume of fetal calf serum.
# as §1
# (§11) In order to evaluate the number of cells, the cell pellets were mixed with 1 ml of their respective medium and the cell viability and the number of cells were evaluated by means of a Trypan blue exclusion test.
# The viable cells and the non-viable cells were counted after Trypan blue exclusion. […] The mortality evolved in the opposite direction, with a maximum increase of about 50%. The concentration of 10^−3M was toxic. The results obtained are reported on the graphs of FIGS. 1a and 1b, which give the percentage of cancer cells relative to the control (cell culture without ATA-Zn) as a function of the concentration of ATA-Zn. FIG. 1a relates to the viable cells and FIG. 1b relates to the non-viable cells.
# Bax/Bcl-2 ratio = assay: Bax/Bcl-2 mRNA ratio by RT-Q-PCR in LNCaP cells; conditions: 10^−5-10^−9M, 48 hours
# Protocol: as §1, §2, §3, §10
# LNCaP cells were incubated with various concentrations of ATA-Zn (10^−5-10^−9M) for 48 hours. The change in the synthesis of Bax mRNA and Bcl-2 mRNA was measured by RT-Q-PCR according to the procedure described previously in the section entitled “Materials and methods”.
# [4] = system: Normal prostate epithelial cells (PrECs); assay: Cell count by Trypan blue exclusion, normal PrECs
# Protocol: Normal prostate epithelial cells (PrECs) and the PrEC growth medium sold by the company Cambrex Bioscience (Walkersville, Md.) were used by way of comparison.
# as §1, §11
# Bax and Bcl-2 = assay: Bax/Bcl-2 mRNA by RT-Q-PCR in PrECs; conditions: Bax and Bcl-2 base amount too low for PCR amplification, a conclusion
# Protocol: as §1, §2, §3, §4, §5
# Nrf-2 protein = Nrf-2 protein by Western blotting in LNCaP cells; conditions: 48 hours, standardized relative to actin
# Protocol: as §6, §7, §8, §9
substance,measurement,setting,value
zinc N-acetyltaurinate [ATA-Zn],synthesis of cyclin-D1 mRNA,cyclin-D1 mRNA [1],no effect
same,level of the SOD-1 protein,SOD-1 protein,decreases
same,synthesis of cyclin-D1 mRNA,cyclin-D1 mRNA [2],reduces
same,antiproliferative effect / number of cells,"[3]; LNCaP cancer cells of the prostate, 48 hours, each dose",antiproliferative effect; also recorded: reduced the number of cells at each dose
same,toxicity at the concentration of 10^−3M,"[3]; LNCaP, 10^−3M",toxic
same,maximum reduction of the number of cells,"[3]; LNCaP, 48 hours of incubation, highest concentration (10^−4), relative to control",25%
same,maximum increase of mortality (non-viable cells),"[3]; LNCaP, 48 hours of incubation, relative to control",about 50%
same,concentrations at which nontoxic,[3]; general statement on the in vitro cell tests,below 10^−3 M
same,Bax/Bcl-2 ratio (mRNA),Bax/Bcl-2 ratio,greatly increased
same,toxicity at the dose of 10^−3M,"[4]; PrECs, 10^−3M",toxic
same,state of cells after 72 hours with 10^−3M,"[4]; PrECs, 10^−3M, 72 hours of incubation",completely dead
same,effect on the number of cells,"[4]; normal PrECs, up to 72 hours of incubation, doses below 10^−3M",no effect
same,apoptosis in normal PrECs,Bax and Bcl-2,not influenced
same,Nrf-2 protein,Nrf-2 protein,repressed
